{
  "source": "patent US11680086B2",
  "about": "“Lipopeptide for potently inhibiting HIV, derivative thereof, pharmaceutical composition thereof and use thereof” (Institute of Pathogen Biology, Chinese Academy of Medical …, priority 2017, dated 2023)",
  "key": {"[1]": {"test_system": "NL4-3 pseudovirus carrying T-20 resistance mutation site of NHR", "assay": "inhibition of T-20 resistant strains", "assay_type": "cell-based, HIV-1", "settings": "strains with single or double mutations"}, "[2]": {"test_system": "HIV-1 strain JRCSF", "assay_type": "cell-based", "protocol": "Inhibition rate (%) and IC50 value were calculated."}, "[3]": {"test_system": "35 HIV-1 pseudoviruses (subtypes A, B, B', C, G, A/C, A/E, B/C)"}, "[4]": {"assay": "pharmacokinetic analysis in SD rats", "settings": "for level at 72 h / level at time molar at 72 h: both, SD, rat, serum, 6 mg/kg", "protocol": "The pharmacokinetic parameters were calculated using a non-compartmental analysis model (NCA)."}, "[5]": {"test_system": "SHIV strain SF162P3", "assay": "therapeutic effect in monkey infection model", "assay_type": "in vivo, Chinese rhesus monkeys", "protocol": "Six adult Chinese rhesus monkeys (numbered A to F, half male and half female) were used in the test, and antibodies to SIV, herpesvirus B, and simian T-lymphotropic virus were determined to be negative. The SHIV strain SF162P3 was provided by the AIDS Reagent Program of NIH in the United States, and was amplified on peripheral blood mononuclear cells (PBMC) of the monkeys, and the TCID50 was determined. Monkeys were intravenously inoculated with 1,000 TCID50 of the SF162P3 virus, and changes in plasma viral load (RNA copy number/ml) in the monkeys were measured periodically. […] The plasma samples were isolated from monkey bloods collected at predetermined time points and the plasma viral load (RNA copy number/ml) was determined by quantitative real-time reverse transcription-polymerase chain reaction (qRT-PCR). The plasma RNA was extracted by a conventional method and cDNA samples were synthesized by reverse transcription reaction. […] The PCR device used was PE AB17500. The sensitivity of the assay was 100 RNA copies per milliliter of plasma sample."}, "[6]": {"test_system": "HIV-1 strain NL4-3 pseudovirus (D36G mutant)", "assay_type": "cell-based", "protocol": "The supernatant was discarded from the wells. […] Inhibition rate (%) and IC50 value were calculated."}, "[7]": {"assay": "Figure 9", "source_text": "Table printed on a drawing sheet, Figure 9\nFirst reader's note: Panel B of Figure 9; each value cell holds the value ± its error, and each column is one route of administration."}},
  "note": "Read-outs that look alike come from different tables or passages of the source. Peptide text beside a SMILES is read from it. * marks the point of attachment. Stearoyl = CCCCCCCCCCCCCCCCCC(=O)*",
  "data": [
    {"smiles": "CCCCCCCCCCCCCCCCCC(=O)NCCCC[C@H](NC(=O)[C@H](CCC(=O)O)NC(=O)[C@H](CC(C)C)NC(=O)[C@H](CCCCN)NC(=O)[C@H](CCCCN)NC(=O)[C@H](CC(C)C)NC(=O)[C@H](CCC(=O)O)NC(=O)[C@H](CCC(=O)O)NC(=O)[C@H](CCC(=O)O)NC(=O)[C@H](CC(N)=O)NC(=O)[C@H](CCCCN)NC(=O)[C@H](CCCCN)NC(=O)[C@H](CCC(N)=O)NC(=O)[C@H](CCC(N)=O)NC(=O)[C@H](CCC(=O)O)NC(=O)[C@H](CCC(=O)O)NC(=O)[C@H](C)NC(=O)[C@H](CCCCN)NC(=O)[C@H](CCCCN)NC(=O)[C@H](CC(C)C)NC(=O)[C@H](CC(C)C)NC(=O)[C@H](CCC(=O)O)NC(=O)[C@H](CCC(=O)O)NC(=O)[C@@H](NC(=O)[C@H](CCCCN)NC(=O)[C@H](CCC(N)=O)NC(=O)[C@H](CCC(=O)O)NC(=O)[C@H](Cc1c[nH]c2ccccc12)NC(C)=O)[C@@H](C)CC)C(N)=O", "note": "[LP-80] (Ac-WEQKIEELLKKAEEQQKKNEEELKKLEK(Stearoyl)-NH2)", "values": [
      {"measurement": "inhibitory activity against T-20 resistant strains (in words)", "setting": "[1]", "value": "thousands to tens of thousands of times better than that of the LP-40"},
      {"measurement": "IC50", "setting": "[2]; Replication of JRCSF, read-out: IC50 for inhibiting replicative virus", "value": 2, "unit": "pM"},
      {"measurement": "inhibitory activity against JRCSF replication (in words)", "setting": "[2]; compared with LP-52", "value": "even greater than that of C16-modified LP-52"},
      {"measurement": "IC50", "setting": "[3]; read-out: IC50 for many strains, many individual strains of the 35 pseudoviruses", "value": "< 1", "unit": "pM"},
      {"measurement": "IC50", "setting": "[3]; read-out: average IC50 for inhibition of various types of HIV-1 pseudoviruses, average over 35 pseudoviruses", "value": 6, "unit": "pM"},
      {"measurement": "inhibitory activity against different subtypes of HIV-1 as folds of T-20", "setting": "[3]; relative to T-20, from average IC50", "value": 6902, "unit": "folds"},
      {"measurement": "serum concentration as folds of the IC50 value (2 pM)", "setting": "[4]; 72 hours after intravenous injection", "value": 1010.56, "unit": "folds"},
      {"measurement": "serum concentration as folds of the IC50 value (2 pM)", "setting": "[4]; 72 hours after subcutaneous injection", "value": 894.51, "unit": "folds"},
      {"measurement": "level at 72 h", "setting": "[4]; iv", "value": 7.75, "unit": "ng/mL"},
      {"measurement": "level at time molar at 72 h", "setting": "[4]; iv", "value": 2.02, "unit": "nM"},
      {"measurement": "level at 72 h", "setting": "[4]; sc", "value": 6.86, "unit": "ng/mL"},
      {"measurement": "level at time molar at 72 h", "setting": "[4]; sc", "value": 1.79, "unit": "nM"},
      {"measurement": "monkeys with viral load decreased below the detectable level line", "setting": "[5]; 2 mg/kg s.c. once a day, fourth day after the treatment, six monkeys", "value": "three of the six monkeys"},
      {"measurement": "rebound of virus", "setting": "[5]; 4th day after administration was stopped", "value": "did not rebound"},
      {"measurement": "rebound of virus", "setting": "[5]; 10th day after administration was stopped", "value": "one of the monkeys (monkey A)"},
      {"measurement": "monkeys with viral load not detected", "setting": "[5]; 14th day after the treatment", "value": "all six monkeys"},
      {"measurement": "rebound of virus", "setting": "[5]; 17th day after administration was stopped", "value": "the other 5 monkeys except the monkey C"},
      {"measurement": "rebound of viral load", "setting": "[5]; 24th day after administration was stopped", "value": "all monkeys"},
      {"measurement": "therapeutic effect (in words)", "setting": "[5]; SHIV SF162P3 infected rhesus monkeys", "value": "powerful antiviral therapeutic effect"},
      {"measurement": "viral load during subsequent treatment", "setting": "[5]; administration once per 4 days for 4 weeks", "value": "controlled below the detectable level line"},
      {"measurement": "monkeys with viral load not detected", "setting": "[5]; eighth day after the treatment", "value": "five monkeys"},
      {"measurement": "IC50", "setting": "[6]; Entry of NL4-3 (D36G), read-out: IC50 for inhibiting pseudovirus", "value": 2, "unit": "pM"},
      {"measurement": "inhibitory activity against NL4-3 entry (in words)", "setting": "[6]; compared with LP-52", "value": "even greater than that of C16-modified LP-52"},
      {"measurement": "Fabs | %", "setting": "[7]", "value": 39.53, "unit": "%"}
    ]}
  ]
}
